Laboratory results taken from US11844794B2, “Pharmaceutical compositions” (ADEPTIO PHARMACEUTICALS LIMITED, priority 2017, dated 2023).

Key:
[1] = moisture-sorption analysis; assay type: physicochemical; settings: for moisture uptake: 25° C.
Method: Moisture-sorption analysis was carried out using a Hiden IGA Sorp moisture-sorption analyser. […] The sample was then subjected to an isothermal (at 25° C.) adsorption scan from 40 to 90% relative humidity in steps of 10%. The sample was allowed to equilibrate to an asymptotic weight at each point for a maximum of four hours. […] An adsorption scan was then performed from 0 to 40% relative humidity inn steps of 10%. The sample was dried for two hours at 60° C. and 0% relative humidity, and the resulting solid was analysed by XRPD.

[2] = pharmacokinetics after oral administration to male Beagle dogs; assay type: in vivo, Beagle dog
Method: Doses were administered orally, via gavage, at a dose volume of 2.00 mL/kg yielding the target dose level of 1.50 mg/kg. Following dosing, 10 mL of tap water was flushed down the gavage to ensure the entire dose was dispensed. Following dosing over four sessions each with one of the test materials, serial whole blood samples (circa. 1.3 mL) were collected from a jugular vein then placed into K2 EDTA treated tubes pre-dose and then 0.25, 0.50, 1, 2, 3, 4, 6, 12 and 24 hours post dose. Blood samples were placed immediately on a cool-block before being centrifuged within 15 minutes at 3,000×g, 10 minutes, 4° C. and resultant plasma drawn off. […] Doses were administered orally, via gavage, at a dose volume of 2.00 mL/kg yielding the target dose level of 1.50 mg/kg. Following dosing, 10 mL of tap water was flushed down the gavage to ensure the entire dose was dispensed. Following dosing over four sessions each with one of the test materials, serial whole blood samples (circa. 1.3 mL) were collected from a jugular vein then placed into K2 EDTA treated tubes pre-dose and then 0.25, 0.50, 1, 2, 3, 4, 6, 12 and 24 hours post dose. Blood samples were placed immediately on a cool-block before being centrifuged within 15 minutes at 3,000×g, 10 minutes, 4° C. and resultant plasma drawn off.

[3] = solid form stability in slurry / polymorphism by XRPD; assay type: physicochemical
[4] = equilibrium aqueous solubility by HPLC; assay type: physicochemical; settings: water, thermodynamic from solid
Method: The aqueous solubilities of salts were measured by an equilibrium method in which an amount of the salt was weighed into a 2 ml vial equipped with a magnetic stirrer bar and water added. In cases where complete dissolution was observed, more material was added until the sample was exhausted. The slurry was then stirred for seven days before isolating the solids by centrifuge-filtration. The solids were analysed by XRPD and the filtrates were analysed by HPLC to determine the amount of (+)-alpha-dihydrotetrabenazine salt in solution. The solubilities were calculated against a calibration curve established for a (+)-alpha-dihydrotetrabenazine sample of known concentration.

[5] = male, Beagle (HsdRcc:DOBE), dog, plasma, po, 1.5 mg/kg, Plasma concentration of (+)-α-dihydrotetrabenazine, Male 1, oral 1.50 mg/kg (freebase equivalent)
[6] = male, Beagle (HsdRcc:DOBE), dog, plasma, po, 1.5 mg/kg, Plasma concentration of (+)-α-dihydrotetrabenazine, Male 2, oral 1.50 mg/kg (freebase equivalent)
[7] = male, Beagle (HsdRcc:DOBE), dog, plasma, po, 1.5 mg/kg, Plasma concentration of (+)-α-dihydrotetrabenazine, Male 3, oral 1.50 mg/kg (freebase equivalent)
[8] = male, Beagle (HsdRcc:DOBE), dog, plasma, po, 1.5 mg/kg, Plasma concentration of (+)-α-dihydrotetrabenazine, Mean of 3 dogs, oral 1.50 mg/kg (freebase equivalent)
[9] = male, Beagle (HsdRcc:DOBE), dog, plasma, po, 1.5 mg/kg, Plasma concentration of (+)-α-dihydrotetrabenazine, Mean of 3 dogs, oral 1.50 mg/kg (freebase equivalent), BLQ treated as zero

COc1cc2c(cc1OC)[C@H]1C[C@@H](O)[C@H](CC(C)C)CN1CC2.O=C(O)CCC(=O)O [(+)-α-dihydrotetrabenazine succinate]
moisture uptake ([1]; 60% relative humidity): 0.6 weight % | moisture uptake ([1]; 90% relative humidity): 1.3 weight % | XRPD pattern after moisture sorption studies ([1]; dried at 60° C. and 0% relative humidity): No change | hygroscopicity ([1]; gravimetric moisture-sorption): slightly hygroscopic | time post dose at which Cmax was observed ([2]; dog, in vivo, po, 1.5 mg/kg): 0.33 h | mean exposure ([2]; male Beagle dogs, oral 1.50 mg/kg (freebase equivalent)): 71.8782 ng·mL·h | concentration at 0.25 h [2, 5]: 66.7 ng/mL | concentration at 0.5 h [2, 5]: 47.6 ng/mL | concentration at 1 h [2, 5]: 23.4 ng/mL | concentration at 2 h [2, 5]: 7.04 ng/mL | concentration at 3 h [2, 5]: 2.48 ng/mL | concentration at 4 h [2, 5]: 1.03 ng/mL | concentration at 6 h [2, 5]: 0.304 ng/mL | concentration at 0.5 h [2, 6]: 32.4 ng/mL | concentration at 1 h [2, 6]: 14.8 ng/mL | concentration at 2 h [2, 6]: 3.65 ng/mL | concentration at 3 h [2, 6]: 1.23 ng/mL | concentration at 4 h [2, 6]: 0.531 ng/mL | concentration at 0.5 h [2, 7]: 83.1 ng/mL | concentration at 1 h [2, 7]: 49.2 ng/mL | concentration at 2 h [2, 7]: 21.7 ng/mL | concentration at 3 h [2, 7]: 10.6 ng/mL | concentration at 4 h [2, 7]: 6.21 ng/mL | concentration at 6 h [2, 7]: 1.68 ng/mL | concentration at 12 h [2, 7]: 0.212 ng/mL | concentration at 0 h ([2]; male, Beagle (HsdRcc:DOBE), dog, plasma, po, 1.5 mg/kg, Plasma concentration of (+)-α-dihydrotetrabenazine, Mean of 3 dogs, oral 1.50 mg/kg (freebase equivalent), 0 h (pre-dose), BLQ treated as zero): 0 ng/mL | concentration at 0.25 h [2, 8]: 46 ng/mL | concentration at 0.5 h [2, 8]: 54.4 ng/mL | concentration at 1 h [2, 8]: 29.1 ng/mL | concentration at 2 h [2, 8]: 10.8 ng/mL | concentration at 3 h [2, 8]: 4.77 ng/mL | concentration at 4 h [2, 8]: 2.59 ng/mL | concentration at 6 h [2, 9]: 0.66 ng/mL | concentration at 12 h [2, 9]: 0.07 ng/mL | concentration at 24 h ([2]; male, Beagle (HsdRcc:DOBE), dog, plasma, po, 1.5 mg/kg, Plasma concentration of (+)-α-dihydrotetrabenazine, Mean of 3 dogs, oral 1.50 mg/kg (freebase equivalent), 24 h, BLQ treated as zero): 0 ng/mL | Cmax ([2]; male, Beagle, dog, in vivo, po, 1.5 mg/kg): 64.3 ng/mL | polymorphism [3]: no evidence of polymorphism | solubility thermodynamic at 7 days [4]: > 350 mg/mL
